Measured values published in ChEMBL document CHEMBL1129343, “Retinoic acid receptor beta,gamma-selective ligands: synthesis and biological activity of 6-substituted 2-naphthoic acid retinoids” (J Med Chem, 1996).

Tests used:
[1] = biological target: T1, Retinoic acid receptor alpha (Homo sapiens, UniProt P10276); test: Apparent binding constant against Retinoic acid receptor alpha in HeLa cell GAl-4 transactivation assay; assay type: cell-based
T1 sequence (P10276 whole entry): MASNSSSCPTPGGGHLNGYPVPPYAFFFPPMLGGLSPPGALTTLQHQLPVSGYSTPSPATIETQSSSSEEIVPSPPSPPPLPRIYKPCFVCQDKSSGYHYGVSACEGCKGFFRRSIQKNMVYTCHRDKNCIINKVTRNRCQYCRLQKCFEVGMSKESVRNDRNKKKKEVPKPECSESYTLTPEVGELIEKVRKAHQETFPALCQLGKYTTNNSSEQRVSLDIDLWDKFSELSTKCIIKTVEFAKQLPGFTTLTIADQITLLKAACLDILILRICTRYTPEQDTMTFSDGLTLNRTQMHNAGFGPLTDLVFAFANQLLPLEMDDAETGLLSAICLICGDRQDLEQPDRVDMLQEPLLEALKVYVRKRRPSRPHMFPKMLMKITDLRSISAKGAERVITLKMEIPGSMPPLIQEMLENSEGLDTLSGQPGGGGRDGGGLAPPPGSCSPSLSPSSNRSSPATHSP

[2] = biological target: T2, Retinoic acid receptor beta (Homo sapiens, UniProt P10826); test: Apparent binding constant for Retinoic acid receptor beta in HeLa cellGAL-4 transactivation assay; assay type: cell-based
T2 sequence (P10826 whole entry): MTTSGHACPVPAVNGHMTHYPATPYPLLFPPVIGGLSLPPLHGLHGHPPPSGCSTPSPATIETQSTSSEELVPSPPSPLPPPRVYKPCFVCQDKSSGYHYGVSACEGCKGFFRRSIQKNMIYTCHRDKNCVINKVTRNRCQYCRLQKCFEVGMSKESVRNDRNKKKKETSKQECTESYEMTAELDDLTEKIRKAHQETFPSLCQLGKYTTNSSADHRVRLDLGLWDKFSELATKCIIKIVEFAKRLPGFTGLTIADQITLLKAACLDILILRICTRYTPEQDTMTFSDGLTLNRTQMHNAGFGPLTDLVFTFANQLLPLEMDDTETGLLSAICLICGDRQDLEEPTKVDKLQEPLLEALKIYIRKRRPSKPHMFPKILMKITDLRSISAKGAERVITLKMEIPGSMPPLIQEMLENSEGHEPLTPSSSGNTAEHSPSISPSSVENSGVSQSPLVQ

- Kd [1]: 11 µM
- Kd [2]: 1.27 µM
Structure (SMILES): CC1(C)CCC(C)(C)c2cc(/C(=N/NS(C)(=O)=O)c3ccc4cc(C(=O)O)ccc4c3)ccc21
